Test results published in patent US9018388B2, “Pesticidal compositions and processes related thereto” (Dow AgroSciences LLC, priority 2012, dated 2015).

Key:
[1] = tested on: Beet Armyworm (BAW) (Spodoptera exigua); experiment: Bioassay on beet armyworm (BAW), 128-well diet tray assay; assay type: in vivo; details: Spodoptera exigua; Beet armyworm, 50 μg/cm^2; read-out: % Mortality BAW 50 μg/cm^2
Protocol: (§1) Bioassays on Beet Armyworm (“BAW”) and Corn Earworm (“CEW”)
(§2) Certain molecules disclosed in this document were tested against BAW and CEW using procedures described in the following examples. In the reporting of the results, the “BAW & CEW Rating Table” was used (See Table Section).
Bioassays on BAW (Spodoptera exigua)
Bioassays on BAW were conducted using a 128-well diet tray assay. One to five second instar BAW larvae were placed in each well (3 mL) of the diet tray that had been previously filled with 1 mL of artificial diet to which 50 μg/cm^2 of the test compound (dissolved in 50 μL of 90:10 acetone-water mixture) had been applied (to each of eight wells) and then allowed to dry. Trays were covered with a clear self-adhesive cover and held at 25° C., 14:10 light-dark for five to seven days. Percent mortality was recorded for the larvae in each well; activity in the eight wells was then averaged. The results are indicated in the table entitled “Table 5: Biological Results” (See Table Section).

[2] = tested on: Corn Earworm (CEW) (Helicoverpa zea); experiment: Bioassay on corn earworm (CEW), 128-well diet tray assay; assay type: in vivo; details: Helicoverpa zea; Corn earworm, 50 μg/cm^2; read-out: % Mortality CEW 50 μg/cm^2
Protocol: as §1, §2
Bioassays on CEW (Helicoverpa zea)
Bioassays on CEW were conducted using a 128-well diet tray assay. One to five second instar CEW larvae were placed in each well (3 mL) of the diet tray that had been previously filled with 1 mL of artificial diet to which 50 μg/cm^2 of the test compound (dissolved in 50 μL of 90:10 acetone-water mixture) had been applied (to each of eight wells) and then allowed to dry. Trays were covered with a clear self-adhesive cover and held at 25° C., 14:10 light-dark for five to seven days. Percent mortality was recorded for the larvae in each well; activity in the eight wells was then averaged. The results are indicated in the table entitled “Table 5: Biological Results” (See Table Section).

## CCC(C)c1ccccc1N1CCS/C1=N\N=C\c1ccc(-c2ncn(-c3ccc(OC(F)(F)F)cc3)n2)cc1 (stereo not shown) [Compound 135C]
[1]
  pest or weed control at 50 µg/cm2, 50 µg/cm2: 50 to 100%
[2]
  pest or weed control at 50 µg/cm2, 50 µg/cm2: 50 to 100%

## CC1CS/C(=N\N=C\c2ccc(-c3ncn(-c4ccc(OC(F)(F)F)cc4)n3)cc2)N1c1ccccc1OC(F)(F)F (stereo not shown) [Compound 168C]
[1]
  pest or weed control at 50 µg/cm2, 50 µg/cm2: 50 to 100%
[2]
  pest or weed control at 50 µg/cm2, 50 µg/cm2: 50 to 100%

## Cc1cccc(C(C)C)c1N1C(=O)CS/C1=N\N=C\c1ccc(-c2ncn(-c3ccc(OC(F)(F)F)cc3)n2)cc1 [Compound 238C]
[1]
  pest or weed control at 50 µg/cm2, 50 µg/cm2: 50 to 100%
[2]
  pest or weed control at 50 µg/cm2, 50 µg/cm2: 50 to 100%

## Cc1cccc(C)c1/N=C1\SCC(=O)N1/N=C/c1ccc(-c2ncn(-c3ccc(OC(F)(F)F)cc3)n2)cc1 [Compound 81C]
[1]
  pest or weed control at 50 µg/cm2, 50 µg/cm2: 50 to 100%
[2]
  pest or weed control at 50 µg/cm2, 50 µg/cm2: 50 to 100%

## CN(C)c1cccc(N2C(=O)CS/C2=N\N=C\c2ccc(-c3ncn(-c4ccc(OC(F)(F)F)cc4)n3)cc2)c1 [Compound 97C]
[1]
  pest or weed control at 50 µg/cm2, 50 µg/cm2: 50 to 100%
[2]
  pest or weed control at 50 µg/cm2, 50 µg/cm2: 50 to 100%

## FC(F)(F)Oc1ccc(-n2cnc(-c3ccc(/C=N/N=C4\SCCCN4c4c(Cl)cccc4Cl)cc3)n2)cc1 [Compound 187C]
[1]
  pest or weed control at 50 µg/cm2, 50 µg/cm2: 50 to 100%
[2]
  pest or weed control at 50 µg/cm2, 50 µg/cm2: 50 to 100%

## O=C1CS/C(=N\N=C\c2ccc(-c3ncn(-c4ccc(OC(F)(F)F)cc4)n3)cc2)N1c1ccccc1OC(F)(F)F [Compound 124C]
[1]
  pest or weed control at 50 µg/cm2, 50 µg/cm2: 50 to 100%
[2]
  pest or weed control at 50 µg/cm2, 50 µg/cm2: 50 to 100%

## Cc1cccc(C)c1N1CCCCS/C1=N\N=C\c1ccc(-c2ncn(-c3ccc(OC(F)(F)F)cc3)n2)cc1 [Compound 211C]
[1]
  pest or weed control at 50 µg/cm2, 50 µg/cm2: 50 to 100%
[2]
  pest or weed control at 50 µg/cm2, 50 µg/cm2: 50 to 100%

## CCC(C)c1ccccc1N1C(=O)CS/C1=N\N=C\c1ccc(-c2ncn(-c3ccc(OC(F)(F)F)cc3)n2)cc1 (stereo not shown) [Compound 108C]
[1]
  pest or weed control at 50 µg/cm2, 50 µg/cm2: 50 to 100%
[2]
  pest or weed control at 50 µg/cm2, 50 µg/cm2: 50 to 100%

## Fc1cccc(F)c1N1CCS/C1=N\N=C\c1ccc(-c2ncn(-c3ccc(OC(F)(F)F)cc3)n2)cc1 [Compound 148C]
[1]
  pest or weed control at 50 µg/cm2, 50 µg/cm2: 50 to 100%
[2]
  pest or weed control at 50 µg/cm2, 50 µg/cm2: 50 to 100%

## CCC(C)c1ccccc1N1/C(=N/N=C/c2ccc(-c3ncn(-c4ccc(OC(F)(F)F)cc4)n3)cc2)SCCC1C (stereo not shown) [Compound 220C]
[1]
  pest or weed control at 50 µg/cm2, 50 µg/cm2: 50 to 100%
[2]
  pest or weed control at 50 µg/cm2, 50 µg/cm2: 50 to 100%

## COc1cc(C)c(/N=C(/N/N=C/c2ccc(-c3ncn(-c4ccc(OC(F)(F)F)cc4)n3)cc2)SCC(=O)NCCCNC(=O)OC(C)(C)C)c(C)c1 [Compound 60C]
[1]
  pest or weed control at 50 µg/cm2, 50 µg/cm2: 50 to 100%
[2]
  pest or weed control at 50 µg/cm2, 50 µg/cm2: 50 to 100%

## Cc1cccc(C)c1N1C(=O)CS/C1=N\N=C\c1ccc(-c2cnn(-c3ccc(OC(F)(F)F)cc3)c2)cc1 [Compound 104C]
[1]
  pest or weed control at 50 µg/cm2, 50 µg/cm2: 50 to 100%
[2]
  pest or weed control at 50 µg/cm2, 50 µg/cm2: 50 to 100%

## Cc1cccc(C)c1N1C(=O)CS/C1=N\N=C\c1ccc(-c2ncn(-c3ccc(OC(F)(F)F)cc3)n2)cc1 [Compound 71C]
[1]
  pest or weed control at 50 µg/cm2, 50 µg/cm2: 50 to 100%
[2]
  pest or weed control at 50 µg/cm2, 50 µg/cm2: 50 to 100%

## O=C1CS/C(=N\N=C\c2ccc(-c3ncn(-c4ccc(OC(F)(F)F)cc4)n3)cc2)N1c1ccccc1Cl [Compound 106C]
[1]
  pest or weed control at 50 µg/cm2, 50 µg/cm2: 50 to 100%
[2]
  pest or weed control at 50 µg/cm2, 50 µg/cm2: 50 to 100%

## Cc1cccc(C)c1/N=C(/N/N=C/c1ccc(-c2ncn(-c3ccc(OC(F)(F)F)cc3)n2)cc1)SCC(=O)NC[C@@H]1CCCN(C(=O)OC(C)(C)C)C1 [Compound 56C, (S)-tert-butyl 3-((2-((Z)-(2,6-dimethylphenylimino)-((E)-2-(4-(1-(4-(trifluoromethoxy)phenyl)-1H-1,2,4-triazol-3-yl)benzylidene)hydrazinyl)-methylthio)acetamido)methyl)piperidine-1-carboxylate]
[1]
  pest or weed control at 50 µg/cm2, 50 µg/cm2: 50 to 100%
[2]
  pest or weed control at 50 µg/cm2, 50 µg/cm2: 50 to 100%

## Cc1cccc(C)c1-n1c(C)cs/c1=N\N=C\c1ccc(-c2ncn(-c3ccc(OC(F)(F)F)cc3)n2)cc1 [Compound 175C]
[1]
  pest or weed control at 50 µg/cm2, 50 µg/cm2: 50 to 100%
[2]
  pest or weed control at 50 µg/cm2, 50 µg/cm2: 50 to 100%

## CC(C)c1ccccc1N1/C(=N/N=C/c2ccc(-c3ncn(-c4ccc(OC(F)(F)F)cc4)n3)cc2)SCC1C (racemic) [Compound 155C]
[1]
  pest or weed control at 50 µg/cm2, 50 µg/cm2: 50 to 100%
[2]
  pest or weed control at 50 µg/cm2, 50 µg/cm2: 50 to 100%

## Cc1cccnc1N1CCCS/C1=N\N=C\c1ccc(-c2ncn(-c3ccc(OC(F)(F)F)cc3)n2)cc1 [Compound 198C]
[1]
  pest or weed control at 50 µg/cm2, 50 µg/cm2: 50 to 100%
[2]
  pest or weed control at 50 µg/cm2, 50 µg/cm2: 50 to 100%

## Cc1cccc(C)c1/N=C(/N/N=C/c1ccc(-c2ncn(-c3ccc(OC(F)(F)F)cc3)n2)cc1)SCC(=O)N1CCNCC1 [Compound 67C]
[1]
  pest or weed control at 50 µg/cm2, 50 µg/cm2: 50 to 100%
[2]
  pest or weed control at 50 µg/cm2, 50 µg/cm2: 50 to 100%
